# Results as given in patent US5945561A, “Retinoid-like compounds” (Bristol-Myers Squibb Company, priority 1998, dated 1999).
# Legend:
# HL60 cells = test: Differentiation and apoptosis of HL60 cells (NBT staining); format: cell-based; conditions: culture up to 9 days; for EC50 (culture day necessary to convert cells into a differentiated or apoptosed phenotype): HL60 cells, 1 μm compound, NBT staining
# Source text: At the end of each day of the culture period, cells were washed and stained with NBT (nitro blue tetrazolium) and counted.
# [1] = tested on: trauma-induced caecal adhesions in female Wistar rat; test: Trauma-induced caecal adhesion model in rats (oral treatment once daily for 7 days, examined on seventh postoperative day); format: in vivo; conditions: 1 × daily for 7 days, N = 5, female Wistar rats; for Mean number of adhesions/rat +/- SD: vehicle (peanut oil) 15.4 +/- 4.8; for Mean Adhesion Severity/Rat +/- SD: vehicle (peanut oil) 39.2 +/- 15
# Method: Models of peritoneal adhesions induced by surgical trauma have been used to predict the clinical activity of a number of marketed anti-adhesion barrier devices. One such model is the trauma-induced caecal adhesion model in rats.
# Adult female Wistar rats were used in our studies. The trauma induction was carried out using aseptic conditions in animals anesthetized with a mixture of Ketamine (100 mg/kg) and Rompun (10 mg/kg) given IP. A 2 cm midline abdominal incision was made and the caecum was exteriorized. Both sides of the caecum were abraded with a dry gauze until there was evidence of punctate bleeding. After replacing the organ in the abdominal cavity, the incision was closed. Trauma to the caecum produces fibrous scar tissue or adhesions to adjacent organs, peritoneal wall, or the omentum. Animals were treated with test compound orally. Oral treatments were administered once daily for up to 7 days.
# On the seventh postoperative day, the animals were sacrificed and the peritoneal cavity was exposed and examined for adhesions. Three criteria that were used to evaluate the adhesions are: severity of the adhesions, extent or area of the ceacum involved with adhesions and the number of adhesions formed in each animal. Statistical analysis of the data was performed using students' T test. The following scoring system was used:
# 1.0 = easily separable, filmy, non-vascularized adhesions
# covering 25% of the caecum;
# 2.0 = dense adhesions separated by blunt dissection and in-
# volving 50% of the caecum;
# 3.0 = dense, fibrous, vascularized adhesions requiring sharp
# dissection and covering 75% of the caecum;
# 4.0 = severe, dense, vascularized adhesions unable to
# separate without tearing the adjacent membranes and
# covering greater than 75% of the caecum.
# The Dose Dependent Effect of Orally Dosed Test Compound on Trauma-induced Ceacal Adhesions in Female Wistar Rat
SMILES,"differentiation and apoptosis of HL60 cells, comparison with t-RA (HL60 cells; 1 μm, result in words)",EC50 (culture day necessary to convert cells into a differentiated or apoptosed phenotype) (HL60 cells) [days],Mean number of adhesions/rat +/- SD ([1]; 3 mg/kg oral),Mean Adhesion Severity/Rat +/- SD ([1]; 3 mg/kg oral),Mean number of adhesions/rat +/- SD ([1]; 10 mg/kg oral),Mean Adhesion Severity/Rat +/- SD ([1]; 10 mg/kg oral),"Mean number of adhesions/rat +/- SD ([1]; 25 mg/kg oral, * p = 0.03)","Mean Adhesion Severity/Rat +/- SD ([1]; 25 mg/kg oral, * p = 0.03)"
CC1(C)CC=C(c2ccccc2)c2cc3cc(-c4ccc(C(=O)O)cc4)ccc3cc21 [Example 1],comparable to t-RA in this assay,6.0,14.6 +/- 2.7,36 +/- 7.0,12.2 +/- 1.6,30.2 +/- 5.5,6.8 +/- 2.4,14.8 +/- 5.6
"CC1=C(/C=C/C(C)=C/C=C/C(C)=C/C(=O)O)C(C)(C)CCC1 [tRA, all-trans retinoic acid, reference compound]",–,3.2,–,–,–,–,–,–
